# Source: patent US20250353873A1, “COMPOUNDS AND METHODS FOR MODULATING APOE EXPRESSION” (Ionis Pharmaceuticals, Inc., priority 2024, published 2025)
# pIC50: −log10 of the molar value. Where “and” joins values, the source holds several entries; their conditions need not be identical. Equal entries are not always repeated. Strand notation (5' to 3'): a small letter for the sugar, then the base; units joined by * are phosphorothioate-linked, units joined directly phosphodiester-linked; [ ] holds rarer units or linkages, { } end groups; capitals alone tell only the bases. [ms] = mesyl phosphoramidate linkage; k = constrained ethyl (cEt); [5mC] = 5-methylcytosine; d = 2'-deoxy (DNA)
# Columns and labels:
# human APOE RNA [1] = experiment: Dose-dependent inhibition of human APOE RNA in HepG2 cells, electroporation, 50,000 cells per well, RT-PCR normalized to GAPDH (Example 4, Tables 8-10); assay type: cell-based; settings: HepG2, electroporation, 24-hour treatment
# Method in brief: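 HepG2 cells, 50,000 per well, electroporated with modified oligonucleotide at various concentrations. APOE RNA quantified by RT-PCR with human primer probe set RTS3073, normalized to GAPDH. Values are percent APOE RNA relative to untreated control cells.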
# human APOE RNA [2] = experiment: Duration of action study in APOE C57BL/6NTac-Apoeem7250 knock-in mice (Example 16); assay type: in vivo; settings: 300 μg ICV
# Description: Modified oligonucleotides described above were tested in the APOE C57BL/6NTac-Apoeem7250 knock-in mouse model described above.
# APOE C57BL/6NTac-Apoeem7250 knock-in mice were divided into groups of 2-4 mice each. Each mouse received a single intracerebroventricular (ICV) bolus of 300 μg of modified oligonucleotide. A group of 2-4 mice received a single ICV bolus with PBS as a negative control.
# Mice were sacrificed at various timepoints as indicated in the table below and RNA was extracted from cortical brain tissue and spinal cord for quantitative real-time RT-PCR analysis of RNA expression of APOE using primer probe set RTS3073 (described herein above). APOE RNA levels were normalized to mouse Ppia. Mouse Ppia was amplified using primer probe set m_cyclo24 (described herein above). Results are presented as percent human APOE RNA relative to the amount of human APOE RNA in PBS treated animals, (% control). Each experiment is identified in separate tables below.
# human APOE RNA [3] = experiment: Activity in APOE C57BL/6NTac-Apoeem7250 knock-in mice, single ICV bolus, 8 weeks (Example 11); assay type: in vivo; settings: single ICV bolus 300 μg, 8 weeks post treatment, normalized to mouse Ppia
# Method in brief: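 Human APOE knock-in C57BL/6NTac mice given one ICV bolus of 300 μg oligonucleotide; PBS-dosed group as control. At 8 weeks, cortex and spinal cord RNA measured by qRT-PCR (human probe RTS3073), normalized to mouse Ppia, expressed as % of PBS control.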
# human APOE RNA [4] = experiment: Activity in APOE C57BL/6NTac-Apoeem7250 knock-in mice, single ICV bolus, 4 weeks (Example 10); assay type: in vivo; settings: single ICV bolus 300 μg, 4 weeks post treatment, normalized to mouse Ppia
# Method in brief: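 Knock-in mice (2–4 per group) received one 300 μg ICV bolus of oligonucleotide or PBS. After four weeks, human APOE RNA in cortex and spinal cord measured by RT-qPCR (primer probe set RTS3073), normalized to mouse Ppia, expressed as % of PBS controls.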
# human APOE RNA [5] = experiment: Dose-dependent inhibition of human APOE RNA in differentiated SH-SY5Y cells, free uptake, 5 days (Example 5); assay type: cell-based; settings: 5 days (Table 14)
# Description: Modified oligonucleotides selected from the examples above were tested at various doses in differentiated SH-SY5Y cells. The modified oligonucleotides were tested in a series of experiments that had the same culture conditions.
# Differentiated SH-SY5Y cells plated at a density of 10,000 cells per well were treated by free uptake with various concentrations of modified oligonucleotide as specified in the tables below. […] APOE RNA levels were measured using the human primer probe set RTS3073 (described herein above). APOE RNA levels were normalized to human PPIA. Human PPIA was amplified using human primer probe set mk_cycloA_2nd (described herein above). Results are presented as percent APOE RNA, relative to the amount of APOE RNA in untreated control cells (% UTC). The half maximal inhibitory concentration (IC50) of each modified oligonucleotide was calculated in GraphPad Prism 10 (GraphPad Software, San Diego, CA) and is also presented in the tables below.
substance,measurement,setting,value
1746784 (k[5mC]*kT*kT*dG[ms]dG[ms]dT[ms]dG[ms]dA[ms]dA[ms]dT*d[5mC]*dT*dT*dT*dA[ms]dT*kT*kA*dA[ms]kA; antisense) [Compound 1746784],APOE RNA (% UTC),human APOE RNA [1]; 5 nM,78 % UTC
same,APOE RNA (% UTC),human APOE RNA [1]; 13 nM,74 % UTC
same,APOE RNA (% UTC),human APOE RNA [1]; 82 nM,80 % UTC
same,APOE RNA (% UTC),human APOE RNA [1]; 205 nM,61 % UTC
same,APOE RNA (% UTC),human APOE RNA [1]; 512 nM,48 % UTC
same,APOE RNA (% UTC),"human APOE RNA [1]; 1,280 nM",29 % UTC
same,APOE RNA (% UTC),"human APOE RNA [1]; 3,200 nM",10 % UTC
same,APOE RNA (% UTC),"human APOE RNA [1]; 8,000 nM",7 % UTC
same,APOE RNA (% UTC),"human APOE RNA [1]; 20,000 nM",7 % UTC
same,pIC50,human APOE RNA [1],6.51
same,APOE RNA (% control) Cortex,human APOE RNA [2]; 112 days post-dose,38 % control
same,APOE RNA (% control) Cortex,human APOE RNA [2]; 140 days post-dose,45 % control
same,APOE RNA (% control) Spinal Cord,human APOE RNA [2]; 112 days post-dose,24 % control
same,APOE RNA (% control) Spinal Cord,human APOE RNA [2]; 140 days post-dose,56 % control
same,APOE RNA (% control) Cortex,human APOE RNA [3],38 % control
same,APOE RNA (% control) Spinal Cord,human APOE RNA [3],138 % control
same,APOE RNA (% control) Cortex,human APOE RNA [4],49 % control and 39 % control
same,APOE RNA (% control) Spinal Cord,human APOE RNA [4],26 % control
same,APOE RNA (% UTC),human APOE RNA [5]; 5 nM,82 % UTC
same,APOE RNA (% UTC),human APOE RNA [5]; 13 nM,118 % UTC
same,APOE RNA (% UTC),human APOE RNA [5]; 33 nM,83 % UTC
same,APOE RNA (% UTC),human APOE RNA [5]; 82 nM,61 % UTC
same,APOE RNA (% UTC),human APOE RNA [5]; 205 nM,49 % UTC
same,APOE RNA (% UTC),human APOE RNA [5]; 512 nM,62 % UTC
same,APOE RNA (% UTC),"human APOE RNA [5]; 1,280 nM",36 % UTC
same,APOE RNA (% UTC),"human APOE RNA [5]; 3,200 nM",24 % UTC
same,APOE RNA (% UTC),"human APOE RNA [5]; 8,000 nM",13 % UTC
same,APOE RNA (% UTC),"human APOE RNA [5]; 20,000 nM",6 % UTC
same,pIC50,human APOE RNA [5],6.36
1746799 (k[5mC]*dT[ms]kT*dG[ms]kG*dT[ms]dG[ms]dA[ms]dA[ms]dT*d[5mC]*dT*dT*dT*dA[ms]dT*kT*dA[ms]kA*kA; antisense) [Compound 1746799],APOE RNA (% UTC),human APOE RNA [1]; 5 nM,115 % UTC
same,APOE RNA (% UTC),human APOE RNA [1]; 13 nM,130 % UTC
same,APOE RNA (% UTC),human APOE RNA [1]; 33 nM,153 % UTC
same,APOE RNA (% UTC),human APOE RNA [1]; 82 nM,125 % UTC
same,APOE RNA (% UTC),human APOE RNA [1]; 205 nM,106 % UTC
same,APOE RNA (% UTC),human APOE RNA [1]; 512 nM,84 % UTC
same,APOE RNA (% UTC),"human APOE RNA [1]; 1,280 nM",52 % UTC
same,APOE RNA (% UTC),"human APOE RNA [1]; 3,200 nM",23 % UTC
same,APOE RNA (% UTC),"human APOE RNA [1]; 8,000 nM",24 % UTC
same,APOE RNA (% UTC),"human APOE RNA [1]; 20,000 nM",33 % UTC
same,pIC50,human APOE RNA [1],5.76
same,APOE RNA (% control) Cortex,human APOE RNA [2]; 112 days post-dose,46 % control
same,APOE RNA (% control) Cortex,human APOE RNA [2]; 140 days post-dose,70 % control
same,APOE RNA (% control) Spinal Cord,human APOE RNA [2]; 112 days post-dose,78 % control
same,APOE RNA (% control) Spinal Cord,human APOE RNA [2]; 140 days post-dose,66 % control
same,APOE RNA (% control) Cortex,human APOE RNA [3],45 % control
same,APOE RNA (% control) Spinal Cord,human APOE RNA [3],39 % control
same,APOE RNA (% control) Cortex,human APOE RNA [4],47 % control
same,APOE RNA (% control) Spinal Cord,human APOE RNA [4],42 % control
1746800 (k[5mC]*dT[ms]kT*dG[ms]dG[ms]kT*dG[ms]dA[ms]dA[ms]dT*d[5mC]*dT*dT*dT*dA[ms]dT*kT*dA[ms]kA*kA; antisense) [Compound 1746800],APOE RNA (% UTC),human APOE RNA [1]; 5 nM,108 % UTC
same,APOE RNA (% UTC),human APOE RNA [1]; 13 nM,111 % UTC
same,APOE RNA (% UTC),human APOE RNA [1]; 33 nM,137 % UTC
same,APOE RNA (% UTC),human APOE RNA [1]; 82 nM,115 % UTC
same,APOE RNA (% UTC),human APOE RNA [1]; 205 nM,97 % UTC
same,APOE RNA (% UTC),human APOE RNA [1]; 512 nM,77 % UTC
same,APOE RNA (% UTC),"human APOE RNA [1]; 1,280 nM",87 % UTC
same,APOE RNA (% UTC),"human APOE RNA [1]; 3,200 nM",39 % UTC
same,APOE RNA (% UTC),"human APOE RNA [1]; 8,000 nM",35 % UTC
same,APOE RNA (% UTC),"human APOE RNA [1]; 20,000 nM",8 % UTC
same,pIC50,human APOE RNA [1],5.49
same,APOE RNA (% control) Cortex,human APOE RNA [2]; 112 days post-dose,52 % control
same,APOE RNA (% control) Cortex,human APOE RNA [2]; 140 days post-dose,75 % control
same,APOE RNA (% control) Spinal Cord,human APOE RNA [2]; 112 days post-dose,88 % control
same,APOE RNA (% control) Spinal Cord,human APOE RNA [2]; 140 days post-dose,58 % control
same,APOE RNA (% control) Cortex,human APOE RNA [3],40 % control
same,APOE RNA (% control) Spinal Cord,human APOE RNA [3],30 % control
same,APOE RNA (% control) Cortex,human APOE RNA [4],41 % control
same,APOE RNA (% control) Spinal Cord,human APOE RNA [4],40 % control
